Structures are written as SMILES.

For orientation: melting point means the temperature of the solid-liquid transition.

The compound `O=C(Nc1ccccc1)Oc1ccc(C2(c3ccc(OC(=O)Nc4ccccc4)cc3)C(=O)Nc3c2ccc(F)c3F)cc1` came in with a melting point of 163 to 165 °C.

`C=CC(=O)Oc1ccc(C2(c3ccc(F)cc3)C(=O)Nc3c2ccc(F)c3C)cc1` (stereo not drawn) [Compound 1016, 4-[6-Fluoro-3-(4-fluorophenyl)-7-methyl-2-oxo-2,3-dihydro-1H-indol-3-yl]phenyl acrylate] registered a melting point of 223 to 225 °C.

`COc1ccc(C2(c3ccc(OCOC(=O)OC(C)C)cc3)C(=O)N(COC(=O)OC(C)C)c3ccccc32)cc1` (stereo not drawn) [Compound 1011, [3-(4-{[(Isopropoxycarbonyl)oxy]methoxy}phenyl)-3-(4-methoxyphenyl)-2-oxo-2,3-dihydro-1H-indol-1-yl]methyl isopropyl carbonate]: the melting point was 63 to 65 °C.

In the case of `O=C(CCN1CCOCC1)Oc1ccc(C2(c3ccc(F)cc3)C(=O)Nc3c2ccc(F)c3F)cc1` (stereo not drawn) [Compound 1009, 4-[6,7-Difluoro-3-(4-fluorophenyl)-2-oxo-2,3-dihydro-1H-indol-3-yl]phenyl 3-morpholinopropanoate], the melting point was 174 to 175 °C.

As to `CN1CCN(CCC(=O)Oc2ccc(C3(c4ccc(F)cc4)C(=O)Nc4c3ccc(F)c4F)cc2)CC1` (stereo not drawn) [Compound 1010, 4-[6,7-Difluoro-3-(4-fluorophenyl)-2-oxo-2,3-dihydro-1H-indol-3-yl]phenyl 3-(4-methylpiperazino)propanoate], the melting point was in the range of 149 to 151 °C.

On to `O=C1N(CCO)c2c(ccc(F)c2F)C1(c1ccc(O)cc1)c1ccc(F)cc1` (stereo not drawn) [Compound 1007, 6,7-Difluoro-3-(4-fluorophenyl)-1-(2-hydroxyethyl)-3-(4-hydroxyphenyl)-1,3-dihydro-2H-indol-2-one], for which the melting point was in the range of 80 to 83 °C.
